One assay deals with T1, Human recombinant MMP-2 (Homo sapiens, UniProt P08253).
T1 construct: made in house; host or cells: MMP-2-transfected p2AHT2 cells
T1 sequence (P08253 110-660): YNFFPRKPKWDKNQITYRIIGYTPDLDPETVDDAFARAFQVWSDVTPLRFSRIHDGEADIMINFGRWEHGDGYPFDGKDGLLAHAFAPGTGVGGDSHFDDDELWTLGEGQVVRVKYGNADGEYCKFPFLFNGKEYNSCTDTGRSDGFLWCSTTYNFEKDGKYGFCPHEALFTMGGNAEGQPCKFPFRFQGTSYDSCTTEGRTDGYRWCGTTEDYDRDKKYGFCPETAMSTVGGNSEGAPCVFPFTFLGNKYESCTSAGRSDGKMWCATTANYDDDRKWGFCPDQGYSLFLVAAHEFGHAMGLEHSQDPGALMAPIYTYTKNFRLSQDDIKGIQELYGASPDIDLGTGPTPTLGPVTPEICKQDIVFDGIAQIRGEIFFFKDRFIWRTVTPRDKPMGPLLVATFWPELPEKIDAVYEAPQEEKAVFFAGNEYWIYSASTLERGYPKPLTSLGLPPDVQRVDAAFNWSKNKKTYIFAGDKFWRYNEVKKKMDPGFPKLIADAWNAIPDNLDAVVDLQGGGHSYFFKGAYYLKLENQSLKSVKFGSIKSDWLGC
As to the kind of experiment: In vitro MMP inhibition, IC50 determination (fluorogenic substrate I). In kind it is biochemical. The note with it: value outside parentheses. The method in brief: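 IC50 was derived from the concentration-dependent fall in fluorescence (ex 328, em 415 nm) on Gly-Leu cleavage of 4 μM MCA/Dpa-quenched substrate I. Assays ran at room temperature in pH 7.5 Tris/NaCl/CaCl2/Brij buffer with MMP-2 activated by trypsin or APMA; inhibitors were diluted from 1% DMSO stocks.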

Another assay deals with T2, Human recombinant MMP-13 (Homo sapiens, UniProt P45452).
T2 construct: made in house; host or cells: baculovirus / insect cells
Described as above. It is filed as biochemical. The note with it: value outside parentheses. Summed up: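 Fluorescence at 415 nm (excitation 328 nm) reports Gly-Leu cleavage of 4 μM quenched methoxycoumarin peptide substrate I. Human recombinant MMP-13, activated by trypsin or APMA, was incubated at room temperature with varied inhibitor concentrations in pH 7.5 Tris/NaCl/CaCl2 buffer; IC50 derived from reduced fluorescence.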

As for `O=C(NCCOc1ccc(S(=O)(=O)C2(C(=O)NO)CCOCC2)cc1)c1cc2ccccc2s1` [Example 619], the values for the IC50 on Human recombinant MMP-2 and on Human recombinant MMP-13 were 66.2 nM and 1.5 nM, respectively.
Consider `O=C(NCCOc1ccc(S(=O)(=O)C2(C(=O)NO)CCOCC2)cc1)c1ccc(Br)s1` [Example 620], for which the IC50 on Human recombinant MMP-2 is 16.2 nM; on Human recombinant MMP-13, 4.1 nM.
Consider `O=C(NCCNc1ccc(S(=O)(=O)C2(C(=O)NO)CCOCC2)cc1)c1cc2ccccc2o1` [Example 621], for which the IC50 was 368 nM at Human recombinant MMP-2 and 17.8 nM on Human recombinant MMP-13.
The matching figures for `CC(C)Cc1cccc(CCCOc2ccc(S(=O)(=O)C3(C(=O)NO)CCOCC3)cc2)c1` [Example 640]: 324 nM and 10.4 nM.
As for `O=C(NO)C1(S(=O)(=O)c2ccc(OCCCc3cccc(N4CCNCC4)c3)cc2)CCN(C2CC2)CC1` [Example 641], the half-inhibitory concentration (IC50) was found to be 135 nM on Human recombinant MMP-2 and 5 nM at Human recombinant MMP-13.
The matching figures for `O=C(COc1ccc(S(=O)(=O)C2(C(=O)NO)CCOCC2)cc1)Nc1cccc(-c2ccccc2)c1` [Example 642]: 2890 nM and 36.9 nM.
The matching figures for `O=C(NCCCOc1ccc(S(=O)(=O)C2(C(=O)NO)CCN(C3CC3)CC2)cc1)C1C2CC3CC(C2)CC1C3` (stereo not shown) [Example 643]: 1130 nM and 11.4 nM.
The matching figures for `CN(CCCOc1ccc(S(=O)(=O)C2(C(=O)NO)CCN(C3CC3)CC2)cc1)C(=O)C1C2CC3CC(C2)CC1C3` (stereo not shown) [Example 644]: 2630 nM and 20.9 nM.

In general, IC50 refers to the concentration that gives 50% inhibition.

The values are drawn from patent US20040024024A1, “Aromatic sulfone hydroxamates and their use as protease inhibitors” (priority 2001, published 2004).
